Literature values in patent publication CN102406622A, “一种托伐普坦的固体制剂” (Zhejiang Huahai Pharmaceutical Co Ltd, priority 2011, dated 2012).

Conditions: low solubility, low permeability

BCS class: IV类药
Compound: Cc1ccccc1C(=O)Nc1ccc(C(=O)N2CCC[C@@H](O)c3cc(Cl)ccc32)c(C)c1 [托伐普坦, N-[4-[(5R)-7-氯-5-羟基-2,3,4,5-四氢-1-苯并氮杂卓-1-甲酰基]-3-甲基苯基]-2-甲基苯甲酰胺]
